Assay results reported in ChEMBL document CHEMBL1629662, “Antimicrobial activity of prulifloxacin tested against a worldwide collection of gastroenteritis-producing pathogens, including those causing traveler's diarrhea” (2009).
In brackets after ≈: the same amount, converted by molar mass.

Legend:
Campylobacter sp. [1] = assay: Antibacterial activity against Campylobacter sp. assessed as growth inhibition at 0.03 ug/ml by broth microdilution method; type: functional
Campylobacter sp. [2] = assay: Antibacterial activity against Campylobacter sp. assessed as growth inhibition at 0.12 ug/ml by broth microdilution method; type: functional
Campylobacter sp. [3] = assay: Antibacterial activity against Campylobacter sp. assessed as growth inhibition at 0.5 ug/ml by broth microdilution method; type: functional
Campylobacter sp. [4] = assay: Antibacterial activity against Campylobacter sp. assessed as growth inhibition at 2 ug/ml by broth microdilution method; type: functional
Escherichia coli [5] = assay: Antibacterial activity against Escherichia coli assessed as percent susceptible isolates by broth microdilution method; type: functional
Escherichia coli [6] = assay: Antibacterial activity against Escherichia coli assessed as percent resistant isolates by broth microdilution method; type: functional
Salmonella typhimurium = assay: Antibacterial activity against Salmonella enterica serovar Typhimurium assessed as percent resistant isolates by broth microdilution method; type: functional, Salmonella enterica subsp. enterica serovar Typhimurium; settings: pooled result: one value given for 8 cell lines, strains, targets or settings
Salmonella enteritidis = assay: Antibacterial activity against Salmonella enterica serovar Enteritidis assessed as percent susceptible isolates by broth microdilution method; type: functional, Salmonella enterica subsp. enterica serovar Enteritidis; settings: pooled result: one value given for 5 cell lines, strains, targets or settings
Salmonella typhi = assay: Antibacterial activity against Salmonella enterica serovar Typhi by broth microdilution method; type: functional, Salmonella enterica subsp. enterica serovar Typhi
[7] = Antibacterial activity against Salmonella enterica serovar Newport by broth microdilution method; type: functional, Salmonella enterica subsp. enterica serovar Newport
[8] = Antibacterial activity against Salmonella enterica serovar Virchow by broth microdilution method; type: functional, Salmonella enterica subsp. enterica serovar Virchow
Shigella flexneri = assay: Antibacterial activity against Shigella flexneri by broth microdilution method; type: functional
Yersinia enterocolitica = assay: Antibacterial activity against Yersinia enterocolitica assessed as percent resistant isolates by broth microdilution method; type: functional
Aeromonas hydrophila [9] = assay: Antibacterial activity against Aeromonas hydrophila assessed as percent susceptible isolates by broth microdilution method; type: functional
Aeromonas hydrophila [10] = assay: Antibacterial activity against Aeromonas hydrophila assessed as percent resistant isolates by broth microdilution method; type: functional
Aeromonas sobria = assay: Antibacterial activity against Aeromonas sobria assessed as percent resistant isolates by broth microdilution method; type: functional
Aeromonas veronii = assay: Antibacterial activity against Aeromonas veronii by broth microdilution method; type: functional
Vibrio alginolyticus = assay: Antibacterial activity against Vibrio alginolyticus assessed as percent resistant isolates by broth microdilution method; type: functional
Vibrio fluvialis = assay: Antibacterial activity against Vibrio fluvialis assessed as percent susceptible isolates by broth microdilution method; type: functional
Campylobacter jejuni = assay: Antibacterial activity against Campylobacter jejuni assessed as percent susceptible isolates by broth microdilution method; type: functional; settings: pooled result: one value given for 2 cell lines, strains, targets or settings
Escherichia coli [11] = assay: Antibacterial activity against enterotoxigenic Escherichia coli assessed as percent susceptible isolates by broth microdilution method; type: functional
Escherichia coli [12] = assay: Antibacterial activity against enteropathogenic Escherichia coli assessed as percent susceptible isolates by broth microdilution method; type: functional
Escherichia coli [13] = assay: Antibacterial activity against enteroaggregative Escherichia coli assessed as percent susceptible isolates by broth microdilution method; type: functional
Escherichia coli [14] = assay: Antibacterial activity against enteroaggregative Escherichia coli assessed as percent resistant isolates by broth microdilution method; type: functional
Escherichia coli [15] = assay: Antibacterial activity against blood-borne Escherichia coli by broth microdilution method; type: functional
Escherichia coli [16] = assay: Antibacterial activity against blood-borne Escherichia coli assessed as percent susceptible isolates by broth microdilution method; type: functional
Escherichia coli [17] = assay: Antibacterial activity against Escherichia coli assessed as growth inhibition at =<0.002 ug/ml by broth microdilution method; type: functional
Escherichia coli [18] = assay: Antibacterial activity against Escherichia coli assessed as growth inhibition at 0.008 ug/ml by broth microdilution method; type: functional
Escherichia coli [19] = assay: Antibacterial activity against Escherichia coli assessed as growth inhibition at 0.016 ug/ml by broth microdilution method; type: functional
Escherichia coli [20] = assay: Antibacterial activity against Escherichia coli assessed as growth inhibition at 0.03 ug/ml by broth microdilution method; type: functional
Escherichia coli [21] = assay: Antibacterial activity against Escherichia coli assessed as growth inhibition at 0.06 ug/ml by broth microdilution method; type: functional
Escherichia coli [22] = assay: Antibacterial activity against Escherichia coli assessed as growth inhibition at 2 ug/ml by broth microdilution method; type: functional
Escherichia coli [23] = assay: Antibacterial activity against Escherichia coli assessed as growth inhibition at =>4 ug/ml by broth microdilution method; type: functional
Salmonella sp. [24] = assay: Antibacterial activity against Salmonella sp. assessed as growth inhibition at =<0.002 ug/ml by broth microdilution method; type: functional
Salmonella sp. [25] = assay: Antibacterial activity against Salmonella sp. assessed as growth inhibition at 0.004 ug/ml by broth microdilution method; type: functional
Salmonella sp. [26] = assay: Antibacterial activity against Salmonella sp. assessed as growth inhibition at 0.008 ug/ml by broth microdilution method; type: functional
Salmonella sp. [27] = assay: Antibacterial activity against Salmonella sp. assessed as growth inhibition at 0.03 ug/ml by broth microdilution method; type: functional
Salmonella sp. [28] = assay: Antibacterial activity against Salmonella sp. assessed as growth inhibition at 0.06 ug/ml by broth microdilution method; type: functional
Shigella sp. [29] = assay: Antibacterial activity against Shigella sp. assessed as growth inhibition at =<0.002 ug/ml by broth microdilution method; type: functional
Shigella sp. [30] = assay: Antibacterial activity against Shigella sp. assessed as growth inhibition at 0.004 ug/ml by broth microdilution method; type: functional
Shigella sp. [31] = assay: Antibacterial activity against Shigella sp. assessed as growth inhibition at 0.03 ug/ml by broth microdilution method; type: functional
Yersinia sp. [32] = assay: Antibacterial activity against Yersinia sp. assessed as growth inhibition at 0.004 ug/ml by broth microdilution method; type: functional; settings: Yersinia sp. (in: enterobacteria)
Yersinia sp. [33] = assay: Antibacterial activity against Yersinia sp. assessed as growth inhibition at 0.016 ug/ml by broth microdilution method; type: functional; settings: Yersinia sp. (in: enterobacteria)
Yersinia sp. [34] = assay: Antibacterial activity against Yersinia sp. assessed as growth inhibition at 0.03 ug/ml by broth microdilution method; type: functional; settings: Yersinia sp. (in: enterobacteria)
Aeromonas sp. [35] = assay: Antibacterial activity against Aeromonas sp. assessed as growth inhibition at 0.008 ug/ml by broth microdilution method; type: functional
Aeromonas sp. [36] = assay: Antibacterial activity against Aeromonas sp. assessed as growth inhibition at 0.016 ug/ml by broth microdilution method; type: functional
Aeromonas sp. [37] = assay: Antibacterial activity against Aeromonas sp. assessed as growth inhibition at 0.03 ug/ml by broth microdilution method; type: functional
Aeromonas sp. [38] = assay: Antibacterial activity against Aeromonas sp. assessed as growth inhibition at 0.12 ug/ml by broth microdilution method; type: functional
Aeromonas sp. [39] = assay: Antibacterial activity against Aeromonas sp. assessed as growth inhibition at 0.5 ug/ml by broth microdilution method; type: functional
Plesiomonas shigelloides = assay: Antibacterial activity against Plesiomonas shigelloides assessed as growth inhibition at 0.004 ug/ml by broth microdilution method; type: functional
Campylobacter sp. [40] = assay: Antibacterial activity against Campylobacter sp. assessed as growth inhibition at =<0.002 ug/ml by broth microdilution method; type: functional

CC1Sc2c(C(=O)O)c(=O)c3cc(F)c(N4CCNCC4)cc3n21 (centres undefined) [ULIFLOXACIN]
inhibition at 0.03 µg/mL (Campylobacter sp. [1]): 61% | inhibition at 0.12 µg/mL (Campylobacter sp. [2]): 82% | inhibition at 0.5 µg/mL (Campylobacter sp. [3]): 83% | inhibition at 2 µg/mL (Campylobacter sp. [4]): 85% | Activity (Escherichia coli [5]): 97% | Activity (Escherichia coli [6]): 3% | Activity (Salmonella typhimurium): 0% | Activity (Salmonella enteritidis): 100% | MIC50 (Salmonella typhi): 8 ng/mL (≈ 0.0229 µM) | MIC90 (Salmonella typhi): 30 ng/mL (≈ 0.0859 µM) | MIC50 [7]: 8 ng/mL (≈ 0.0229 µM) | MIC90 [7]: 30 ng/mL (≈ 0.0859 µM) | MIC50 [8]: 8 ng/mL (≈ 0.0229 µM) | MIC90 [8]: 30 ng/mL (≈ 0.0859 µM) | MIC50 (Shigella flexneri): 4 ng/mL (≈ 0.0114 µM) | MIC90 (Shigella flexneri): 8 ng/mL (≈ 0.0229 µM) | Activity (Yersinia enterocolitica): 0% | Activity (Aeromonas hydrophila [9]): 98% | Activity (Aeromonas hydrophila [10]): 2% | Activity (Aeromonas sobria): 2% | MIC50 (Aeromonas veronii): 4 ng/mL (≈ 0.0114 µM) | MIC90 (Aeromonas veronii): 60 ng/mL (≈ 0.172 µM) | Activity (Vibrio alginolyticus): 0% | Activity (Vibrio fluvialis): 100% | Activity (Campylobacter jejuni): 84.4% | Activity (Escherichia coli [11]): 100% | Activity (Escherichia coli [12]): 100% | Activity (Escherichia coli [13]): 100% | Activity (Escherichia coli [14]): 0% | MIC50 (Escherichia coli [15]): 8 ng/mL (≈ 0.0229 µM) | MIC90 (Escherichia coli [15]): 60 ng/mL (≈ 0.172 µM) | MIC50 (Escherichia coli [15]; Escherichia coli, read-out: MIC50): 8 ng/mL (≈ 0.0229 µM) | MIC90 (Escherichia coli [15]; Escherichia coli, read-out: MIC90): 60 ng/mL (≈ 0.172 µM) | Activity (Escherichia coli [16]): 90% | inhibition (INH) (Escherichia coli [17]): 0% | inhibition at 0.008 µg/mL (Escherichia coli [18]): 93% | inhibition at 0.016 µg/mL (Escherichia coli [19]): 94% | inhibition at 0.03 µg/mL (Escherichia coli [20]): 96% | inhibition at 0.06 µg/mL (Escherichia coli [21]): 97% | inhibition at 2 µg/mL (Escherichia coli [22]): 97% | inhibition (INH) (Escherichia coli [23]): 100% | inhibition (INH) (Salmonella sp. [24]): 1% | inhibition at 0.004 µg/mL (Salmonella sp. [25]): 10% | inhibition at 0.008 µg/mL (Salmonella sp. [26]): 65% | inhibition at 0.03 µg/mL (Salmonella sp. [27]): 91% | inhibition at 0.06 µg/mL (Salmonella sp. [28]): 97% | inhibition (INH) (Shigella sp. [29]): 1% | inhibition at 0.004 µg/mL (Shigella sp. [30]): 62% | inhibition at 0.03 µg/mL (Shigella sp. [31]): 99% | inhibition at 0.004 µg/mL (Yersinia sp. [32]): 0% | inhibition at 0.016 µg/mL (Yersinia sp. [33]): 93% | inhibition at 0.03 µg/mL (Yersinia sp. [34]): 93% | inhibition at 0.008 µg/mL (Aeromonas sp. [35]): 68% | inhibition at 0.016 µg/mL (Aeromonas sp. [36]): 78% | inhibition at 0.03 µg/mL (Aeromonas sp. [37]): 87% | inhibition at 0.12 µg/mL (Aeromonas sp. [38]): 93% | inhibition at 0.5 µg/mL (Aeromonas sp. [39]): 98% | inhibition at 0.004 µg/mL (Plesiomonas shigelloides): 75% | inhibition (INH) (Campylobacter sp. [40]): 0%
